Data reported in patent US20200078404A1, “COMBINATION OF A CELL THERAPY AND AN IMMUNOMODULATORY COMPOUND” (Juno Therapeutics, Inc., priority 2017, published 2020).

What was measured:
[1] = system: anti-BCMA CAR T cells; test: Cytokines of anti-BCMA CAR T cells stimulated with BCMA-conjugated beads (supernatant, intracellular); format: cell-based, human; settings: 24 hours
Procedure: Cryofrozen anti-BCMA CAR T cells, produced substantially as described in Example 2 and formulated at a 1:1 ratio of CD4+ and CD8+ T cells, were thawed.
Twenty four hours after addition of BCMA-conjugated beads, the presence of TNF-α, IFNγ, and IL-2 in culture supernatants was assessed.
In a further exemplary study, two different anti-BCMA CAR T cell compositions were generated from different donors, each containing T cells expressing the same anti-BCMA CAR. The cells were thawed and incubated with beads (diameter about 4.5 μm) from a 5 μg/mL or 200 μg/mL BCMA-conjugated bead composition generated as described in Example 1. […] Twenty four hours after addition of BCMA-conjugated beads, IL-2 production by the anti-BCMA CAR+ T cells was assessed in culture supernatants.
The cells were gated on transduced, live CD3+ cells, and assessed by flow cytometry for intracellular cytokine accumulation of IFNγ and TNFα in CD4+ and CD8+ cells.

[2] = system: anti-BCMA CAR-T cells; test: Prestimulation of anti-BCMA CAR-T cells on BCMA beads for 7 days: phenotype, cytolytic activity and cytokines with RPMI-8226; format: cell-based, human
Procedure: Expression of CD25, PD-1, Tim3 and Lag3 on CAR T cells (using an antibody for surrogate CAR marker) cultured under the different conditions then was assessed by flow cytometry.
Percentage killing was normalized to anti-BCMA CAR T cells prestimulated on beads in the presence of vehicle. Cytokine production was assessed by ELISA from supernatant following culture with target cells for 24 hours. Experiments were performed twice in 3 donors. […] P values were obtained by likelihood ratio tests comparing the full model with the effect of interest against the model without the effect of interest.

[3] = system: anti-CD19 CAR+ T cells; test: CD25 and PD-1 surface expression of anti-CD19 CAR+ T cells incubated with K562-CD19 cells; format: cell-based, human
Procedure: After 120 hours of culture, cells were isolated and assessed by flow cytometry for surface expression of CD25 or PD-1 in CD4+ or CD8+ T cell subsets.

[4] = system: OPM-2-luciferase tumor; test: OPM-2 orthotopic xenograft mouse model, Study 2 (concurrent or delayed lenalidomide); format: in vivo
Procedure: In a further study, NOD/Scid/gc^−/− (NSG) mice were injected (i.v.) with OPM-2-luciferase cells as described in Study 1 above and allowed to engraft for 14 days prior to CAR-T (or mock) cell; infusion (i.v.).
At 14 days after tumor cell injection (day 0), a subtherapeutic dose of CAR+ T cells (1×10^6 CAR-T cells (generated from two different donors)) or mock control cells was injected intravenously. Data are presented as mean±SEM. For in vivo survival, a Gehan-Breslow-Wilcoxon test was used to compare groups.
FIG. 10E depicts the results of tumor burden assessment through day 60, as analyzed by the bioluminescence […]. […] P values were obtained by likelihood ratio tests comparing the full model with the effect of interest against the model without the effect of interest.
Blood from the treated mice was collected for CAR-T pharmacokinetic analysis, and cells were stained with antibodies to exclude mouse-specific cells (H2-kd, TER119, and muCD45) and analyzed by flow cytometry. Cells were gated on CD45+CD3+CAR+ and the cells per microliter of blood was determined. For pharmacokinetic measurements, each time point was analyzed by one-way ANOVA and Tukey post-hoc test. FIGS. 10G and 10H show the flow cytometric analysis of mock control cells and CAR-T cells in the blood of the mice at days 8, 14, 22, and 28 following injection of the CAR-T cells from two donors.

[5] = system: anti-BCMA CAR T cells; test: Cytokine production of anti-BCMA CAR T cells on low, medium, high BCMA bead stimulation; format: cell-based, human
Procedure: In another study, recombinant human BCMA-conjugated beads were used to stimulate CAR T cells at various concentrations to titrate the magnitude of stimulation, either low (5 μg/mL), medium (50 μg/mL), and high (200 μg/mL) stimulation.

[6] = system: RPMI-8226 target cells; test: Cytolytic activity against RPMI-8226 after seven days incubation with BCMA-conjugated beads; format: cell-based, human
Procedure: Cytolytic activity of CAR+ T cells after incubation with BCMA-conjugated beads was assessed by incubation with the BCMA-expressing target cell line RPMI-8226, which is a BCMA+ multiple myeloma cell line. […] The number of viable cells was normalized to cells at day 0 prior to incubation with the RPMI-8226 target cells.

[7] = system: anti-CD19 CAR+ T cells; test: Serial restimulation of anti-CD19 CAR+ T cells with K562-CD19 cells: expansion; format: cell-based, human; settings: 1 μM lenalidomide, 4 rounds of stimulation, 12 days, two donors
Procedure: The ability of anti-CD19 CAR+ T cells to expand ex vivo following repeated stimulations was assessed using methods substantially as described in Example 2. […] For each donor, cells were harvested every 3-5 days from each experimental condition in the wells and counted, and restimulated with new target cells using the same culture conditions after resetting cell number to initial seeding density for each round. A total of 4 rounds of stimulation during a 12 day culture period were carried out. For each round of stimulation, the total number of cells was determined, and the results were depicted as the fold-change of cell number after stimulation (FIG. 17A) or number of doublings compared to initial number (FIG. 17B).

[8] = system: K562-CD19 cells; settings: 1-5000 nM lenalidomide, E:T 2.5:1, about 120 hours
[9] = system: anti-BCMA CAR T cells with RPMI-8226; test: Cytokine production of anti-BCMA CAR T cells co-cultured with RPMI-8226 with or without lenalidomide; format: cell-based, human
From the text: Culture of T cells not expressing the anti-BCMA CAR (mock) was used as a control.

[10] = 1 μM lenalidomide during the prestimulation period
[11] = 1 μM lenalidomide, 7 days on BCMA beads
[12] = medium stimulation (50 μg BCMA beads), 24 hours, 1 μM lenalidomide

Nc1cccc2c1CN(C1CCC(=O)NC1=O)C2=O (centres unmarked) [lenalidomide, 3-(4-amino-1-oxo-1,3-dihydro-2H-isoindol-2-yl)piperidine-2,6-dione]
intracellular cytokine levels of IFNγ and TNFα ([1]; 0.1 μM or 1 μM lenalidomide, 5, 50 or 200 μg/mL beads): increased by lenalidomide
IL-2 production ([1]; 1 μM or 5 μM lenalidomide, 5 or 200 μg/mL BCMA beads, two donors): increased cytokine production
BCMA-induced CAR+ T cell cytokine production (IFNγ, IL-2, TNF-α) ([1]; 5 μM lenalidomide, 5 or 50 μg/mL BCMA beads): increased BCMA-induced CAR+ T cell cytokine production
cytokine production of prestimulated CAR-T cells [2, 10]: trend toward increased cytokine production
cytolytic function of prestimulated CAR-T cells [2, 10]: preserved cytolytic function
CD25 expression (MFI) [2, 11]: increasing CD25 expression
PD-1 expression (MFI) [2, 11]: reduced PD-1 expression
total cell count ([2]; 7-day period, all donors): did not alter the total cell count
CAR+ viability ([2]; 7 days on BCMA beads, 3 healthy donors): significantly increased CAR+ viability
percentage positive for Lag3 expression ([2]; CD4+ and CD8+ CAR+ populations, all donors): increased
percentage of PD-1+ cells ([2]; CD4+ population): decrease in the percentage of PD-1+ cells
surface expression of Tim3 ([2]; CD8+ population, three donors): increased the surface expression of Tim3 in the CD8+ population
CD25 expression in CD4+ and CD8+ T cells ([3]; 1600 nM lenalidomide, E:T 2.5:1, 120 hours): higher levels of CD25 expression
surface expression of PD-1 in CD4+ or CD8+ T cells ([3]; up to 1600 nM lenalidomide, 120 hours): No difference in surface expression of PD-1
tumor growth and tumor burden ([4]; added to subtherapeutic CAR+ T cells from both donors, through day 60): slower tumor growth and reduced tumor burden
CAR T counts in the peripheral blood ([4]; concurrent lenalidomide, after 7 days, not at later time points): increased CAR T counts in the peripheral blood
tumor burden ([4]; concurrent lenalidomide, donor 1, vs vehicle with anti-BCMA CAR T): significant decrease in tumor burden
survival ([4]; concurrent lenalidomide, donor 1 and donor 2): increased survival
percentage of IFN-γ+ and TNF-α+ intracellular staining ([5]; 0.1 or 1.0 μM lenalidomide, all stimulation levels, CD4+ and CD8+): increased the percentage of IFN-γ^+ and TNF-α^+ intracellular staining
percentage of IL-2+ CAR+ T cells ([5]; 5-μg stimulation): increasing the percentage of IL-2^+ CAR^+ T cells
percentage of IL-2+ CAR+ T cells ([5]; 50-μg and 200-μg stimulation): decreasing the percentage of IL-2^+ CAR^+ T cells
CAR T cytokine production ([5]; absence of stimulation): had no effect on CAR T cytokine production
increase in IL-2 concentration compared with vehicle control [5, 12]: 200%
increase in TNF-α concentration compared with vehicle control [5, 12]: 200%
IFN-γ concentration compared with vehicle control ([5]; medium stimulation, 24 hours): donor-dependent increases
target cell viability ([6]; RPMI 8226 cells cultured with lenalidomide, no CAR T): did not directly influence target cell viability
killing activity ([6]; lenalidomide present during the cell killing assay): did not substantially affect killing activity
cytolytic activity of the CAR+ T cells ([6]; preincubation with 5 μM lenalidomide during seven day bead incubation): increased cytolytic activity of the CAR+ T cells
cell expansion of anti-CD19 CAR+ T cells [7]: no change or only a minor effect in cell expansion
CAR-mediated cytolytic activity [8]: reduced CAR-mediated cytolytic activity
CAR-dependent cytokine production and/or accumulation (IL-2, IFNγ, TNF-α) ([9]; 10 μM lenalidomide, E:T 0.3:1, 48 hours): increase in CAR-dependent cytokine production and/or accumulation
cytokine production by CAR-expressing T cells (IFN-γ, IL-2, TNF-α) ([9]; three healthy donors and one patient donor): significantly increased across all donors and cytokines
